Changes are numbered by the printed parent chain. pIC50, pKd: −log10 of the molar value. Where two headings read alike, the source gives them in different places.
Assays:
[1] = target: T1, MGL (Rattus norvegicus, UniProt Q8R431); test: 2-AG accumulation assay in rat brain homogenate; format: biochemical; conditions: rat brain homogenate; compound 1 μM; 2-AG accumulation as percent of vehicle; read-out: Rat Brain 2AG % VehCntrl (%) @ 1 μM
T1 construct: one g rat brain was homogenized using a Polytron homogenizer; from tissue; host or cells: rat brain homogenate
T1 sequence (Q8R431 1-303): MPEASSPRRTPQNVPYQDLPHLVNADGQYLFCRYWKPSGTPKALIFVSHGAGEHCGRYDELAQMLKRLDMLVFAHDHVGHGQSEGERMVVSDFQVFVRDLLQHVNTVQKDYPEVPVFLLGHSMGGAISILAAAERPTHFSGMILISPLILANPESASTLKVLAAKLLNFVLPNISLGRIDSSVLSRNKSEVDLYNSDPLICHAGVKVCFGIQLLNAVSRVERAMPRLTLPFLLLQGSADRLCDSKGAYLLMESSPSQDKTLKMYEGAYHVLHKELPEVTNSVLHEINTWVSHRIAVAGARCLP

[2] = target: T2, purified wild type MGL (wt-MGLL 6H-11-313) (Homo sapiens, UniProt Q99685)
T2 sequence (Q99685 1-303): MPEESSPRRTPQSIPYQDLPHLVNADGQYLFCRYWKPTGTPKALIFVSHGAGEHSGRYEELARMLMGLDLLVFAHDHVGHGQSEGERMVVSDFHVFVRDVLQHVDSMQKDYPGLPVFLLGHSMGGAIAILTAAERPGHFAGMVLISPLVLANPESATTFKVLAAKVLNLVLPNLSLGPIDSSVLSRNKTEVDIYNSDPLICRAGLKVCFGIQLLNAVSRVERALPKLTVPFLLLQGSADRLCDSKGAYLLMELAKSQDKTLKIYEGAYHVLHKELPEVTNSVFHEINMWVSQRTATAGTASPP

[3] = target: T3, mutant MGL (Homo sapiens, UniProt Q99685, L169S/L176S); test: MGL ThermoFluor assay - mutant; format: binding; conditions: for Kd: read-out: MGL mutant ThermoFluor qKd (μM) (using qNMR conc.)
T3 sequence (Q99685 1-303 L169S/L176S): T2 sequence (Q99685 1-303) with L169S, L176S

[4] = ThermoFluor, compound concentration measured by qNMR
[5] = ThermoFluor, compound concentration measured by qNMR, read-out: MGL mutant ThermoFluor qKd (using qNMR conc.)
[6] = ThermoFluor concentration-response, read-out: MGL mutant ThermoFluor Kd
[7] = compound concentration measured by qNMR, read-out: MGL mutant ThermoFluor qKd (using qNMR conc.)

Row | SMILES | 2-AG accumulation, % of vehicle control at 1 µM [1] | pIC50 [2] | Kd [3, 4] | pKd [3, 5] | pKd [3, 6] | pKd [3, 7]
1 | Cn1ccc2cc(C(=O)N3CC(N4CCN(C(=O)c5nccs5)CC4)C3)cc(-c3cccc(C(F)(F)F)c3)c21 [Cpd 1060] | 671% | 8.22 | 0.032 µM | – | – | –
2 | O=C(c1ccc2c(ccn2-c2ccc(C(F)(F)F)nc2)c1)N1CC(N2CCN(C(=O)c3ccc[nH]3)CC2)C1 [Cpd 1062, 5-({3-[4-(1H-Pyrrol-2-ylcarbonyl)piperazin-1-yl]azetidin-1-yl}carbonyl)-1-[6-(trifluoromethyl)pyridin-3-yl]-1H-indole] | 451% | 8.15 | – | 7.00 | – | –
3 | O=C(c1nccs1)N1CCN(C2CN(C(=O)c3sc4cc(-c5ccc(C(F)(F)F)cc5)ccc4c3F)C2)CC1 [Cpd 1063] | 846% | 8.15 | – | – | 8.52 | –
4 | Cc1cc(C(=O)N2CC(N3CCN(C(=O)c4nccs4)CC3)C2)sc1-c1cccc(F)c1 [Cpd 1065] | 531% | 8.15 | 0.036 µM | – | – | –
5 | Cn1ccc2cc(C(=O)N3CC(N4CCN(C(=O)c5nccs5)CC4)C3)cc(-c3cccc(F)c3)c21 [Cpd 1066] | 609% | 8.15 | 0.031 µM | – | – | –
6 | O=C(c1ccc(-c2cccc(C(F)(F)F)c2)cc1)N1CCN(C2CN(C(=O)c3cscn3)C2)CC1 [Cpd 1067, 1-[1-(1,3-Thiazol-4-ylcarbonyl)azetidin-3-yl]-4-{[3′-(trifluoromethyl)biphenyl-4-yl]carbonyl}piperazine] | 408% | 8.15 | – | – | 8.15 | –
7 | Cc1cn(-c2cccc(OC(F)(F)F)c2)c2ccc(C(=O)N3CC(N4CCN(C(=O)c5nccs5)CC4)C3)cc12 [Cpd 1068] | 849% | 8.15 | 0.002 µM | – | – | –
8 | O=C(c1cscn1)N1CCN(C2CN(C(=O)c3cc4ccn(-c5ccc(F)cc5)c4cc3F)C2)CC1 [Cpd 1069] | 696% | 8.15 | – | – | 7.55 | –
9 | O=C(c1ccc(-c2ccc(C(F)(F)F)s2)cc1)N1CC(N2CCN(C(=O)c3cscn3)CC2)C1 [Cpd 1071, 1-(1,3-Thiazol-4-ylcarbonyl)-4-[1-({4-[5-(trifluoromethyl)thiophen-2-yl]phenyl}carbonyl)azetidin-3-yl]piperazine] | 552% | 8.10 | – | – | 7.60 | –
10 | COc1ccc(-n2ccc3cc(C(=O)N4CC(N5CCN(C(=O)c6nccs6)CC5)C4)ccc32)cn1 [Cpd 1072, 1-(6-Methoxypyridin-3-yl)-5-({3-[4-(1,3-thiazol-2-ylcarbonyl)piperazin-1-yl]azetidin-1-yl}carbonyl)-1H-indole] | 839% | 8.10 | – | 8.15 | – | –
11 | Cc1cc(-c2ccccc2)ccc1C(=O)N1CC(N2CCN(C(=O)c3nccs3)CC2)C1 [Cpd 1074, 1-{1-[(3-Methylbiphenyl-4-yl)carbonyl]azetidin-3-yl}-4-(1,3-thiazol-2-ylcarbonyl)piperazine] | 303% | 8.10 | – | – | 7.96 | –
12 | Cc1c(C(=O)N2CC(N3CCN(C(=O)c4nccs4)CC3)C2)[nH]c2ccc(-c3ccc(F)cc3)cc12 [Cpd 1075, 5-(4-Fluorophenyl)-3-methyl-2-({3-[4-(1,3-thiazol-2-ylcarbonyl)piperazin-1-yl]azetidin-1-yl}carbonyl)-1H-indole] | 833% | 8.10 | 0.01 µM | – | – | –
13 | O=C(c1ccc2nc(-c3ccc(F)c(F)c3)oc2c1)N1CC(N2CCN(C(=O)c3nccs3)CC2)C1 [Cpd 1077] | 667% | 8.10 | 0.02 µM | – | – | –
14 | O=C(c1ccc2c(c1)CCN2c1ccc(F)cc1)N1CC(N2CCN(C(=O)c3cscn3)CC2)C1 [Cpd 1081] | 622% | 8.05 | – | – | – | 7.72
15 | O=C(c1ccc(-c2nc(-c3ccc(F)cc3)cs2)cc1)N1CC(N2CCN(C(=O)c3nccs3)CC2)C1 [Cpd 1082] | 742% | 8.05 | – | – | 8.52 | –
16 | O=C(c1cc(-c2ccc(Cl)cc2)n(-c2ccc(Cl)c(Cl)c2)n1)N1CC(N2CCN(C(=O)c3nccs3)CC2)C1 [Cpd 1083] | 299% | 8.05 | – | 7.19 | – | –
17 | Cc1cn(-c2ccc(F)cc2)c2ccc(C(=O)N3CCN(C4CN(C(=O)c5nccs5)C4)CC3)cc12 [Cpd 1089, 1-(4-Fluorophenyl)-3-methyl-5-({4-[1-(1,3-thiazol-2-ylcarbonyl)azetidin-3-yl]piperazin-1-yl}carbonyl)-1H-indole] | 545% | 8.00 | – | 8.22 | 8.05 | –
18 | COc1ccc(-c2cccc(C(=O)N3CC(N4CCN(C(=O)c5nccs5)CC4)C3)c2)cc1 [Cpd 1091] | 450% | 7.96 | – | – | 5.78 | –
19 | O=C(c1nccs1)N1CCN(C2CN(C(=O)c3sc4ccc(-c5ccc(C(F)(F)F)cc5)cc4c3F)C2)CC1 [Cpd 1092] | 838% | 7.96 | – | – | 8.30 | –
20 | O=C(c1cccc(-c2cccc(C(F)(F)F)c2)c1)N1CC(N2CCN(C(=O)c3nccs3)CC2)C1 [Cpd 1093] | 472% | 7.96 | – | – | 6.62 | –
21 | O=C(c1nccs1)N1CCN(C2CN(C(=O)c3sc4cc(-c5ccccc5)ccc4c3C(F)(F)F)C2)CC1 [Cpd 1095, 1-(1-{[6-Phenyl-3-(trifluoromethyl)-1-benzothiophen-2-yl]carbonyl}azetidin-3-yl)-4-(1,3-thiazol-2-ylcarbonyl)piperazine] | 484% | 7.96 | – | – | 7.96 | –
22 | Cc1sc(C(=O)N2CC(N3CCN(C(=O)c4nccs4)CC3)C2)cc1-c1ccc(F)cc1 [Cpd 1096] | 449% | 7.96 | 0.08 µM | – | – | –
23 | O=C(c1ccc2c(ccn2-c2ccc(C(F)(F)F)cc2)c1)N1CC(N2CCN(C(=O)c3ccns3)CC2)C1 [Cpd 1097, 5-({3-[4-(Isothiazol-5-ylcarbonyl)piperazin-1-yl]azetidin-1-yl}carbonyl)-1-[4-(trifluoromethyl)phenyl]-1H-indole] | 422% | 7.92 | – | – | 7.49 | –
24 | O=C(c1cscn1)N1CCN(C2CN(C(=O)c3sc4cc(-c5ccccc5)ccc4c3C(F)(F)F)C2)CC1 [Cpd 1098, 1-(1-{[6-Phenyl-3-(trifluoromethyl)-1-benzothiophen-2-yl]carbonyl}azetidin-3-yl)-4-(1,3-thiazol-4-ylcarbonyl)piperazine] | 296% | 7.92 | – | – | 7.51 | –
25 | O=C(c1ccc2c(c1)CCN2c1ccc(F)cc1)N1CC(N2CCN(C(=O)c3ccc[nH]3)CC2)C1 [Cpd 1099] | 508% | 7.92 | – | – | – | 7.70
26 | Cn1ccc2cc(C(=O)N3CC(N4CCN(C(=O)c5nccs5)CC4)C3)cc(-c3ccc(F)cc3)c21 [Cpd 1101] | 501% | 7.92 | 0.044 µM | – | – | –
27 | O=C(c1cc(F)cc(-c2ccccc2)c1)N1CC(N2CCN(C(=O)c3nccs3)CC2)C1 [Cpd 1104, 1-{1-[(5-Fluorobiphenyl-3-yl)carbonyl]azetidin-3-yl}-4-(1,3-thiazol-2-ylcarbonyl)piperazine] | 334% | 7.89 | – | – | 6.70 | –
28 | Cc1ccc(-n2ccc3cc(C(=O)N4CC(N5CCN(C(=O)c6nccs6)CC5)C4)ccc32)cn1 [Cpd 1105, 1-(6-Methylpyridin-3-yl)-5-({3-[4-(1,3-thiazol-2-ylcarbonyl)piperazin-1-yl]azetidin-1-yl}carbonyl)-1H-indole] | 734% | 7.89 | – | 7.64 | – | –
29 | COc1cc(-n2ccc3cc(C(=O)N4CC(N5CCN(C(=O)c6nccs6)CC5)C4)ccc32)ccn1 [Cpd 1107, 1-(2-Methoxypyridin-4-yl)-5-({3-[4-(1,3-thiazol-2-ylcarbonyl)piperazin-1-yl]azetidin-1-yl}carbonyl)-1H-indole] | 838% | 7.85 | – | 8.52 | – | –

Reference: patent US8362000B2, “Azetidinyl diamides as monoacylglycerol lipase inhibitors” (Janssen Pharmaceutica NV, priority 2009, dated 2013)
